Data as given in ChEMBL document CHEMBL1154382, “Preliminary SAR analysis of novel antiproliferative N(6),5'-bis-ureidoadenosine derivatives” (2009).
Activity calls are given as the source filed them.

How the values were obtained:
Type in all cases: functional
[1] = test system: NCI-H23; assay: Antiproliferative activity against human NCI-H23 cells at 10 uM assessed as cell growth inhibition relative to control
[2] = test system: SK-OV-3; assay: Antiproliferative activity against human SKOV3 cells at 10 uM assessed as cell growth inhibition relative to control
[3] = test system: OVCAR-8; assay: Antiproliferative activity against human OVCAR8 cells at 10 uM assessed as cell growth inhibition relative to control
[4] = test system: A549; assay: Antiproliferative activity against human A549 cells at 10 uM assessed as cell growth inhibition relative to control
[5] = test system: HCT-15; assay: Antiproliferative activity against human HCT15 cells at 10 uM assessed as cell growth inhibition relative to control
[6] = test system: SNB-19; assay: Antiproliferative activity against human SNB19 cells at 10 uM assessed as cell growth inhibition relative to control
[7] = test system: MCF7; assay: Antiproliferative activity against human MCF7 cells at 10 uM assessed as cell growth inhibition relative to control
[8] = test system: UO-31; assay: Antiproliferative activity against human UO31 cells at 10 uM assessed as cell growth inhibition relative to control
[9] = test system: T47D; assay: Antiproliferative activity against human T47D cells at 10 uM assessed as cell growth inhibition relative to control
[10] = test system: HCC 2998; assay: Antiproliferative activity against human HCC2998 cells at 10 uM assessed as cell growth inhibition relative to control
[11] = test system: 786-0; assay: Antiproliferative activity against human 786-0 cells at 10 uM assessed as cell growth inhibition relative to control
[12] = test system: Hs-578T; assay: Antiproliferative activity against human Hs 578T cells at 10 uM assessed as cell growth inhibition relative to control
[13] = test system: SK-MEL-28; assay: Antiproliferative activity against human SK-MEL-28 cells at 10 uM assessed as cell growth inhibition relative to control
[14] = test system: Malme-3M; assay: Antiproliferative activity against human MALME-3M cells at 10 uM assessed as cell growth inhibition relative to control
[15] = test system: LOX IMVI; assay: Antiproliferative activity against human LOXIMVI cells at 10 uM assessed as cell growth inhibition relative to control
[16] = test system: KM12; assay: Antiproliferative activity against human KM12 cells at 10 uM assessed as cell growth inhibition relative to control
[17] = test system: HL-60(TB); assay: Antiproliferative activity against human HL-60(TB) cells at 10 uM assessed as cell growth inhibition relative to control
[18] = test system: HOP-62; assay: Antiproliferative activity against human HOP62 cells at 10 uM assessed as cell growth inhibition relative to control
[19] = test system: IGROV-1; assay: Antiproliferative activity against human IGROV1 cells at 10 uM assessed as cell growth inhibition relative to control
[20] = test system: CAKI-1; assay: Antiproliferative activity against human Caki1 cells at 10 uM assessed as cell growth inhibition relative to control
[21] = test system: DU-145; assay: Antiproliferative activity against human DU145 cells at 10 uM assessed as cell growth inhibition relative to control
[22] = test system: SN12C; assay: Antiproliferative activity against human SN12C cells at 10 uM assessed as cell growth inhibition relative to control
[23] = test system: NCI-H322M; assay: Antiproliferative activity against human NCI-H322M cells at 10 uM assessed as cell growth inhibition relative to control
[24] = test system: OVCAR-3; assay: Antiproliferative activity against human OVCAR-3 cells at 10 uM assessed as cell growth inhibition relative to control
[25] = test system: UACC-257; assay: Antiproliferative activity against human UACC257 cells at 10 uM assessed as cell growth inhibition relative to control
[26] = test system: PC-3; assay: Antiproliferative activity against human PC3 cells at 10 uM assessed as cell growth inhibition relative to control
[27] = test system: MDA-MB-468; assay: Antiproliferative activity against human MDA-MB-468 cells at 10 uM assessed as cell growth inhibition relative to control
[28] = test system: BT-549; assay: Antiproliferative activity against human BT549 cells at 10 uM assessed as cell growth inhibition relative to control
[29] = test system: CCRF-CEM; assay: Antiproliferative activity against human CCRF-CEM cells at 10 uM assessed as cell growth inhibition relative to control
[30] = test system: TK-10; assay: Antiproliferative activity against human TK10 cells at 10 uM assessed as cell growth inhibition relative to control
[31] = test system: SW-620; assay: Antiproliferative activity against human SW620 cells at 10 uM assessed as cell growth inhibition relative to control
[32] = test system: RPMI8266; assay: Antiproliferative activity against human […] cells at 10 uM assessed as cell growth inhibition relative to control
[33] = test system: COLO 205; assay: Antiproliferative activity against human COLO205 cells at 10 uM assessed as cell growth inhibition relative to control
[34] = test system: OVCAR-5; assay: Antiproliferative activity against human OVCAR5 cells at 10 uM assessed as cell growth inhibition relative to control
[35] = test system: EKVX; assay: Antiproliferative activity against human EKVX cells at 10 uM assessed as cell growth inhibition relative to control
[36] = test system: OVCAR-4; assay: Antiproliferative activity against human OVCAR4 cells at 10 uM assessed as cell growth inhibition relative to control
[37] = test system: SF-295; assay: Antiproliferative activity against human SF295 cells at 10 uM assessed as cell growth inhibition relative to control
[38] = test system: RXF 393; assay: Antiproliferative activity against human RXF393 cells at 10 uM assessed as cell growth inhibition relative to control
[39] = test system: HOP-92; assay: Antiproliferative activity against human HOP92 cells at 10 uM assessed as cell growth inhibition relative to control
[40] = test system: SF-539; assay: Antiproliferative activity against human SF539 cells at 10 uM assessed as cell growth inhibition relative to control
[41] = test system: HCT-116; assay: Antiproliferative activity against human HCT116 cells at 10 uM assessed as cell growth inhibition relative to control
[42] = test system: ACHN; assay: Antiproliferative activity against human ACHN cells at 10 uM assessed as cell growth inhibition relative to control
[43] = test system: NCI-H226; assay: Antiproliferative activity against human NCI-H226 cells at 10 uM assessed as cell growth inhibition relative to control
[44] = test system: NCI-H522; assay: Antiproliferative activity against human NCI-H522 cells at 10 uM assessed as cell growth inhibition relative to control
[45] = test system: M14; assay: Antiproliferative activity against human M14 cells at 10 uM assessed as cell growth inhibition relative to control
[46] = test system: SF-268; assay: Antiproliferative activity against human SF268 cells at 10 uM assessed as cell growth inhibition relative to control
[47] = test system: UACC-62; assay: Antiproliferative activity against human UACC62 cells at 10 uM assessed as cell growth inhibition relative to control
[48] = test system: SK-MEL-2; assay: Antiproliferative activity against human SK-MEL-2 cells at 10 uM assessed as cell growth inhibition relative to control
[49] = test system: U-251; assay: Antiproliferative activity against human U251 cells at 10 uM assessed as cell growth inhibition relative to control
[50] = test system: MOLT-4; assay: Antiproliferative activity against human MOLT4 cells at 10 uM assessed as cell growth inhibition relative to control
[51] = test system: MDA-MB-231; assay: Antiproliferative activity against human MDA-MB-231 cells at 10 uM assessed as cell growth inhibition relative to control
[52] = test system: K562; assay: Antiproliferative activity against human K562 cells at 10 uM assessed as cell growth inhibition relative to control
[53] = test system: A498; assay: Antiproliferative activity against human A498 cells at 10 uM assessed as cell growth inhibition relative to control
[54] = test system: SNB-75; assay: Antiproliferative activity against human SNB75 cells at 10 uM assessed as cell growth inhibition relative to control
[55] = test system: NCI-H460; assay: Antiproliferative activity against human NCI-H460 cells at 10 uM assessed as cell growth inhibition relative to control
[56] = test system: SK-MEL-5; assay: Antiproliferative activity against human SK-MEL-5 cells at 10 uM assessed as cell growth inhibition relative to control
[57] = test system: HT-29; assay: Antiproliferative activity against human HT-29 cells at 10 uM assessed as cell growth inhibition relative to control

Measured: growth inhibition (GI)

CNC(=O)NC[C@H]1O[C@@H](n2cnc3c(NC(=O)Nc4ccccc4)ncnc32)[C@@H]2OC(C)(C)O[C@@H]21
inactive: all assays above

CNC(=O)NC[C@H]1O[C@@H](n2cnc3c(NC(=O)Nc4ccccc4)ncnc32)[C@H](O)[C@@H]1O
inactive: all assays above
